Earlier results on one compound are cited in PubChem BioAssay AID1259409 (Chemical Carcinogenesis Research Information System (CCRIS), 2018).

This series relates to rodent chemically induced tumor inhibition, incidence and multiplicity. In words: CCRIS tumor inhibitor studies.

For the compound `C=CCSCC=C`, the “tumour outcome (control, treated, inhibition, significance)” value is, setting by setting: (Carcinogen: 4-(METHYLNITROSAMINO)-1-(3-PYRIDYL)-1-BUTANONE, 64091-91-4, Dose [Inhibitor]: 0, 200 MG/KG BW IN CORN OIL FOR 3 D PRIOR TO CARCINOGEN TREATMENT (STUDY DURATION: 16 WK), Route [Inhibitor]: ORAL, Species: MOUSE, Strain/Sex: STRAIN-A/FEMALE, Target Tissue: Type of Lesion: LUNG: TUMOR, Dose [Carcinogen]: 100 MG/KG BW ONCE, Promoter: NONE USED) 100%, 38%, 62%, not calculated; (Carcinogen: 4-(METHYLNITROSAMINO)-1-(3-PYRIDYL)-1-BUTANONE, 64091-91-4, Dose [Inhibitor]: 0, 200 MG/KG/BW IN CORN OIL 1/D FOR 3 DAY PRIOR TO CARCINOGEN DOSE (STUDY DURATION: 16 WK), Route [Inhibitor]: ORAL, Species: MOUSE, Strain/Sex: STRAIN-A/FEMALE, Target Tissue: Type of Lesion: LUNG: TUMOR, Dose [Carcinogen]: 2 MG ONCE ADMINISTERED 2 HR POST LAST AGENT DOSE, Promoter: NONE USED) 100%, 38%, 62%, p<0.05; (Carcinogen: 7,12-DIMETHYLBENZ[A]ANTHRACENE, 57-97-6, Dose [Inhibitor]: 0, 1.8 MMOL/KG BW IN CORN OIL 96, 48 AND 24 HR PRIOR TO CARCINOGEN TREATMENT (STUDY DURATION: 25 WK), Route [Inhibitor]: GAVAGE, Species: RAT, Strain/Sex: SPRAGUE-DAWLEY/FEMALE, Target Tissue: Type of Lesion: MAMMARY GLAND: ADENOCARCINOMA, Dose [Carcinogen]: 10 MG ONCE, Promoter: NONE USED) 92%, 56%, 39%, p<0.05; (Carcinogen: ARISTOLOCHIC ACID, 313-67-7, Dose [Inhibitor]: 0, 150 MG/KG BW ADMINISTERED 4 HR PRIOR TO EACH CARCINOGEN DOSE 2/WK FOR 12 WK (STUDY DURATION: 46 WK), Route [Inhibitor]: GAVAGE, Species: RAT, Strain/Sex: BD-6/MALE, Target Tissue: Type of Lesion: FORESTOMACH: CARCINOMA OR SARCOMA, Dose [Carcinogen]: 10 MG/KG BW 2/WK FOR 12 WK, Promoter: NONE USED) 9/20 (45%), 2/20 (10%), 78%, p<0.01; (Carcinogen: ARISTOLOCHIC ACID, 313-67-7, Dose [Inhibitor]: 0, 150 MG/KG BW ADMINISTERED 24 AND 4 HR PRIOR TO EACH CARCINOGEN DOSE FOR 12 WK (STUDY DURATION: 46 WK), Route [Inhibitor]: GAVAGE, Species: RAT, Strain/Sex: BD-6/MALE, Target Tissue: Type of Lesion: FORESTOMACH: CARCINOMA OR SARCOMA, Dose [Carcinogen]: 10 MG/KG BW 2/WK FOR 12 WK, Promoter: NONE USED) 11/25 (44%), 0/20 (0%), 100%, p<0.001; (Carcinogen: BENZO[A]PYRENE [50-32-8], Dose [Inhibitor]: 0, 200 MG/KG BW IN TRIOCTANOIN 1 D AND 2 HR PRIOR TO CARCINOGEN DOSE (STUDY DURATION: 21 WK), Route [Inhibitor]: GAVAGE, Species: MOUSE, Strain/Sex: CD-1/FEMALE, Target Tissue: Type of Lesion: SKIN: PAPILLOMA, Dose [Carcinogen]: 0.3 UMOL IN 0.2 ML ACETONE ONCE, Promoter: 12-O-TETRADECANOYLPHORBOL-13-ACETATE [16561-29-8]) 92%, 73%, 21%, not calculated. Further, the “tumour outcome (control, treated, inhibition, significance)” value by setting is: (Carcinogen: BENZO[A]PYRENE [50-32-8], Dose [Inhibitor]: 200 MG/KG IN 10 µL TRIOCTANOIN ONCE 1 D AND 2 HR PRIOR TO CARCINOGEN DOSE (STUDY DURATION: 21 WK), Route [Inhibitor]: GAVAGE, Species: MOUSE, Strain/Sex: CD-1/FEMALE, Target Tissue: Type of Lesion: SKIN: PAPILLOMA, Dose [Carcinogen]: 0.3 UMOL IN 0.2 ML ACETONE ONCE (STUDY DURATION: 21 WK), Promoter: 12-O-TETRADECANOYLPHORBOL-13-ACETATE [16561-29-8]) 92%, 74%, 20%, not calculated; (Carcinogen: DIETHYLNITROSAMINE, 55-18-5, Dose [Inhibitor]: 0, 150 MG/KG BW BY INTRAPERITONEAL INJECTION ON DAYS 13, 14 AND 15 OF AGE THEN 1 G/KG DIET FROM 21 TO 161 DAYS OF AGE (S, Route [Inhibitor]: INTRAPERITONEAL, ORAL, Species: MOUSE, Strain/Sex: C3H/MALE, Target Tissue: Type of Lesion: LIVER: ADENOMA, Dose [Carcinogen]: 4 MG/KG IN TRICAPRYLIN ONCE ON DAY 15 OF AGE, Promoter: NONE USED) 100%, 97%, 3%, not significant; (Carcinogen: DIETHYLNITROSAMINE, 55-18-5, N-METHYL-N-NITROSOUREA, 684-93-5, N,N'-DIMETHYLHYDRAZINE, 540-73-8, N-BUTYL-N-(4-HYDR, Carcinogen: DIETHYLNITROSAMINE, 55-18-5, N-METHYL-N-NITROSOUREA, 684-93-5, N,N'-DIMETHYLHYDRAZINE, 540-73-8, N-BUTYL-N-(4-HYDR, Dose [Inhibitor]: 0, 200 MG/KG BW IN CORN OIL 3/WK FOR 6 WK BEGINNING POST CARCINOGEN TREATMENT (STUDY DURATION: 28 WK), Route [Inhibitor]: GAVAGE, Species: RAT, Strain/Sex: F344/MALE, Target Tissue: Type of Lesion: KIDNEY: RENAL CELL ADENOMA, Dose [Carcinogen]: 100 MG/KG BW DEN ONCE, 20 MG/KG BW MNU ONCE ON D 2, 5, 8 AND 11, 40 MG/KG BW DMH ON D 14, 17, 20 AND 23, 0.05% BHBN I, Dose [Carcinogen]: 100 MG/KG BW DEN ONCE, 20 MG/KG BW MNU ONCE ON D 2, 5, 8 AND 11, 40 MG/KG BW DMH ON D 14, 17, 20 AND 23, 0.05% BHBN I, Promoter: NONE USED) 4/20 (20%), 4/19 (21%), -5%, not significant; (Carcinogen: DIETHYLNITROSAMINE, 55-18-5, N-METHYL-N-NITROSOUREA, 684-93-5, N,N'-DIMETHYLHYDRAZINE, 540-73-8, N-BUTYL-N-(4-HYDR, Carcinogen: DIETHYLNITROSAMINE, 55-18-5, N-METHYL-N-NITROSOUREA, 684-93-5, N,N'-DIMETHYLHYDRAZINE, 540-73-8, N-BUTYL-N-(4-HYDR, Dose [Inhibitor]: 0, 200 MG/KG BW IN CORN OIL 3/WK FOR 6 WK BEGINNING POST CARCINOGEN TREATMENT (STUDY DURATION: 28 WK), Route [Inhibitor]: GAVAGE, Species: RAT, Strain/Sex: F344/MALE, Target Tissue: Type of Lesion: LARGE INTESTINE: ADENOMA, Dose [Carcinogen]: 100 MG/KG BW DEN ONCE, 20 MG/KG BW MNU ONCE ON D 2, 5, 8 AND 11, 40 MG/KG BW DMH ON D 14, 17, 20 AND 23, 0.05% BHBN I, Dose [Carcinogen]: 100 MG/KG BW DEN ONCE, 20 MG/KG BW MNU ONCE ON D 2, 5, 8 AND 11, 40 MG/KG BW DMH ON D 14, 17, 20 AND 23, 0.05% BHBN I, Promoter: NONE USED) 6/20 (30%), 1/19 (5%), 83%, not calculated; (Carcinogen: DIETHYLNITROSAMINE, 55-18-5, N-METHYL-N-NITROSOUREA, 684-93-5, N,N'-DIMETHYLHYDRAZINE, 540-73-8, N-BUTYL-N-(4-HYDR, Carcinogen: DIETHYLNITROSAMINE, 55-18-5, N-METHYL-N-NITROSOUREA, 684-93-5, N,N'-DIMETHYLHYDRAZINE, 540-73-8, N-BUTYL-N-(4-HYDR, Dose [Inhibitor]: 0, 200 MG/KG BW IN CORN OIL 3/WK FOR 6 WK BEGINNING POST CARCINOGEN TREATMENT (STUDY DURATION: 28 WK), Route [Inhibitor]: GAVAGE, Species: RAT, Strain/Sex: F344/MALE, Target Tissue: Type of Lesion: LARGE INTESTINE: CARCINOMA, Dose [Carcinogen]: 100 MG/KG BW DEN ONCE, 20 MG/KG BW MNU ONCE ON D 2, 5, 8 AND 11, 40 MG/KG BW DMH ON D 14, 17, 20 AND 23, 0.05% BHBN I, Dose [Carcinogen]: 100 MG/KG BW DEN ONCE, 20 MG/KG BW MNU ONCE ON D 2, 5, 8 AND 11, 40 MG/KG BW DMH ON D 14, 17, 20 AND 23, 0.05% BHBN I, Promoter: NONE USED) 8/20 (40%), 7/19 (37%), 8%, not significant; (Carcinogen: DIETHYLNITROSAMINE, 55-18-5, N-METHYL-N-NITROSOUREA, 684-93-5, N,N-DIBUTYLNITROSAMINE, 924-16-3, Carcinogen: DIETHYLNITROSAMINE, 55-18-5, N-METHYL-N-NITROSOUREA, 684-93-5, N,N-DIBUTYLNITROSAMINE, 924-16-3, Dose [Inhibitor]: 0, 0.5% IN DIET BEGINNING POST CARCINOGEN TREATMENT AND CONTINUING TO WK 40 (STUDY DURATION: 40 WK), Route [Inhibitor]: ORAL, Species: RAT, Strain/Sex: F344/MALE, Target Tissue: Type of Lesion: LUNG: ADENOMA, Dose [Carcinogen]: 100 MG/KG DIETHYLNITROSAMINE ONCE FOLLOWED BY 20 MG/KG N-METHYL-N-NITROSOUREA ON D 2, 5, 8 AND 11 THEN 0.05% N-N-DIBUTYL, Promoter: NONE USED) 9/16 (56%), 2/18 (11%), 80%, p<0.01.
